Data reported in patent US20240051958A1, “DIACYLGLYCEROL KINASE (DGK) ALPHA INHIBITORS AND USES THEREOF” (priority 2022, published 2024).

Assays:
DGKA = DGKA (Homo sapiens (Human), UniProt P23743); test: DGKA Inhibition ADP-Glo Assay; assay type: biochemical; details: 40 μM ATP, 200 μM DLG in substrate working solution, 25° C., 60 min
Protocol: The DGKA inhibition reactions were performed using ADP-Glo assay. The reactions were carried out in 50 mM HEPES, 100 mM NaCl, 10 mM MgCl2, 1 mM CaCl2, 0.005% TritonX-100 and 1 mM DTT as working solution (pH=7.5). 30 nL DMSO solution of each test compound (Top concentration 0.4 μM with 10 point, 4-fold dilution series for each compound) were transferred to 384 well plate by Echo and 5 μL DGKA (SignalChem, D21-10BG) enzyme working solution at 2×final reaction concentration was added to each well. After incubated at 25° C. for 15 minutes, 5 μL substrate working solution contain 40 μM ATP (Promega, V915B) and 200 μM DLG (SignalChem, D430-59) were added to initiate reaction. After enzymatic reaction at 25° C. for 60 min, ADP Glo assay reagents (Promega, V9102) were added and luminescence was recorded using an EnVision following the instruction of manual. […] The IC50 value was calculated via a regression analysis of the inhibition rate.

[1] = Pharmacokinetic Profile Evaluation (mouse PK); assay type: in vivo, CD-1 mice; details: CD-1, plasma, oral administration at 5 mg/kg
Protocol: Species and strain: CD-1 mice of SPF. Source: Sino-British SIPPR/BK Lab Animal Ltd, Shanghai. 3 mice were intravenously administrated with given compounds (Formulation: 5% DMSO+10% Solutol+85% Saline) or orally gavage administrated with given compounds (Formulation: 5% DMSO+10% Solutol+85% Saline). The blood samples were taken via cephalic vein at timepoints 0.083 h, 0.25 h, 0.5 h, 1 h, 2 h, 4 h, 8 h and 24 h after intravenous administration or at timepoints 0.25 h, 0.5 h, 1 h, 2 h, 4 h, 6 h, 8 h and 24 h after oral gavage administration, 30 μL/time point. Blood samples were placed in tubes containing K2-EDTA and stored on ice until centrifuged. The blood samples were centrifuged at 6800 g for 6 minutes at 2-8° C. within 1 h after collected and stored frozen at approximately −80° C. An aliquot of 10 μL plasma samples were protein precipitated with 200 μL MeOH in which contains 10 ng/mL Verapamil (IS). The mixture was vortexed for 1 min and centrifuged at 18000 g for 7 min. Transfer 180 μL supernatant to 96 well plates. An aliquot of 6 μL supernatant was injected for LC-MS/MS analysis by LC-MS/MS-04 (API4000) instrument. The analytical results were confirmed using quality control samples for intra-assay variation. The accuracy of >66.7% of the quality control samples should be between 80-120% of the known value(s). Standard set of parameters including Area Under the Curve (AUC(0-t) and AUC(0-∞)), elimination half-live (T1/2), maximum plasma concentration (Cmax), will be calculated using noncompartmental analysis modules in FDA certified pharmacokinetic program Phoenix WinNonlin 7.0 (Pharsight, USA).

Human Pan T cells = test: IL-2 Release Detection Assay; assay type: cell-based; details: for Activation fold: Top activation/DMSO control; for Activation % at 100 nM: fitted curve at 100 nM/DMSO control*100%
Protocol: Add dilutions of compounds into the cells and incubate at 37° C. &5% CO2 for 24 hours. IL-2 in cell supernatant was detected by ELISA Kit (R&D, DY202). […] Top and Bottom: Plateaus in same units as Y. LogEC50: same log units as X. Activation fold: Top activation/DMSO control. Activation % at 100 nM: Activation of non-linear regression equation curve at the concentration of 100 nM/DMSO control*100%.

Chain of DGKA (P23743 whole entry): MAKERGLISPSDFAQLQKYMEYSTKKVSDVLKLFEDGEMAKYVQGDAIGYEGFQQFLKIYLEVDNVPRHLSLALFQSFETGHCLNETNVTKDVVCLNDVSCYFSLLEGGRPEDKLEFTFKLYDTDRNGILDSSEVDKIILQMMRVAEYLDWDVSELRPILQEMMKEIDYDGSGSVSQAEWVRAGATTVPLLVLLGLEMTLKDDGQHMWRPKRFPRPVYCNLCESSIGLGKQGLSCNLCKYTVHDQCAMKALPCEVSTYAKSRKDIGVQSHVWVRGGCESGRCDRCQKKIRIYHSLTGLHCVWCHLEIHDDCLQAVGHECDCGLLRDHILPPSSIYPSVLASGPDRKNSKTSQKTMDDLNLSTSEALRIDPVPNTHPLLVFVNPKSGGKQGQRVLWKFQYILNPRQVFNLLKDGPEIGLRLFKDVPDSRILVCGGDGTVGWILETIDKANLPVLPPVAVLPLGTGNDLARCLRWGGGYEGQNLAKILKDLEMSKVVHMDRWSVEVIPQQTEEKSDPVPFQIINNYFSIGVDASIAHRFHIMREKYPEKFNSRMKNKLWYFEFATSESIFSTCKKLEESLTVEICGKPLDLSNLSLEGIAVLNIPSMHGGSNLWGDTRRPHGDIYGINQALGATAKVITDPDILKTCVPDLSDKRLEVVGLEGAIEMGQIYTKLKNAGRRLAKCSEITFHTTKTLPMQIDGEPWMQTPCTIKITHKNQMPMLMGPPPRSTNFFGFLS

| SMILES | IC50 (DGKA) [nM] | AUC(0-inf) [1] [ng·h/mL] | AUC(0-t) [1] [ng·h/mL] | Cmax [1] [ng/mL] | half-life [1] [h] | Activation fold (Human Pan T cells) | Activation % at 100 nM (Human Pan T cells) [%] |
| --- | --- | --- | --- | --- | --- | --- | --- |
| Cc1ccc2oc(C3CCN(c4cc(=O)n(C)c5cc(OCCO)c(C#N)nc45)CC3)nc2c1 [Example 23, 3-(2-hydroxyethoxy)-5-methyl-8-(4-(5-methylbenzo[d]oxazol-2-yl)piperidin-1-yl)-6-oxo-5,6-dihydro-1,5-naphthyridine-2-carbonitrile] | 0.27 | 12100 | 12000 | 1820 | 3.51 | 24.5 | 931 |
| Cn1c(=O)cc(N2CCC(c3nc4cc(F)ccc4o3)CC2)c2nc(C#N)ccc21 [Example 12, 8-(4-(5-fluorobenzo[d]oxazol-2-yl)piperidin-1-yl)-5-methyl-6-oxo-5,6-dihydro-1,5-naphthyridine-2-carbonitrile] | 1.35 | 5940 | 5460 | 1100 | 3.56 | 8.5 | 340 |
| Cc1ccc2oc(C3CCN(c4cc(=O)n(C)c5ccc(C#N)nc45)CC3)nc2c1 [Example 1, 5-methyl-8-(4-(5-methylbenzo[d]oxazol-2-yl)piperidin-1-yl)-6-oxo-5,6-dihydro-1,5-naphthyridine-2-carbonitrile] | 1.99 | 6150 | 5980 | 1880 | 1.46 | 17.7 | 416 |
| Cc1ccc2oc(C3CCN(c4cc(=O)n(C)c5cc(O[C@@H]6CCOC6)c(C#N)nc45)CC3)nc2c1 [Example 28, (R)-5-methyl-8-(4-(5-methylbenzo[d]oxazol-2-yl)piperidin-1-yl)-6-oxo-3-((tetrahydrofuran-3-yl)oxy)-5,6-dihydro-1,5-naphthyridine-2-carbonitrile] | 0.14 | 3460 | 3410 | 677 | 2.67 |  |  |
